The record followed here is patent publication US5366966A, “Compound UCE6” (Kyowa Hakko Kogyo Co., Ltd., priority 1992, dated 1994).

Data set [1] is described as follows: Solubility. The data set is classed as physicochemical.
The subject of data set [2] is HeLaS3 cells. Description: Inhibition on the Growth of HeLaS3 Cells (Neutral Red staining). The data set is classed as cell-based. The settings on record: Homo sapiens, HeLa S3, 72 hours at 37° C., absorbance at 550 nm, read-out: IC50 (the concentration of the test compound capable of inhibiting the growth of the cells at a ratio of 50%). As to the method: (A) Inhibition on the Growth of HeLaS3 Cells
0.1 ml portions of a 3×10^4 cell/ml suspension of HeLaS3 cells [American Type Culture Collection (ATCC) CCL2.2]. in Minimum Essential Medium (MEM) medium (mfd. by Nissui Seiyaku) containing 10% of calf fetal serum and 2 mM of glutamine (hereinafter referred to as the medium A) were pipetted into a 96-well microtiter plate. 0.05 ml of the test compound optionally diluted with the medium A is added to each well, followed by incubating in a carbon dioxide gas incubator at 37° C. for 72 hours. After removing supernatant the culture 0.1 ml of the medium A containing 0.02% of Neutral Red is added to the residue. The cells are cultivated in the carbon dioxide gas incubator at 37° C. for additional one hour to thereby stain the cells. After removing the supernatant of culture, the residue was washed with saline once. The pigment is extracted with 0.001 N hydrochloric acid/30% ethanol and the absorbance at 550 nm is measured with a microplate reader. Then IC50 (the concentration of the test compound capable of inhibiting the growth of the cells at a ratio of 50%) is calculated on the basis of the comparison between the absorbance of untreated cells and that of the test compound-treated cells (at various concentration of the test compound).

With `Cc1c(O)cc2c(c1O)C(=O)c1c(cc3cc(O)cc(CC(=O)CC(C)O)c3c1O)C2=O` (stereo not drawn) [UCE6], the Solubility entry in data set [1] (in dimethylsulfoxide (DMSO), N,N-dimethylformamide and pyridine) is given as “soluble”; in data set [1] (in water, ethanol, methanol, ethyl acetate and chloroform), “hardly soluble”. Also, the IC50 in data set [2] came out at 18 nM.
